{"source": "patent US11413280B2", "about": "(The Board of Trustees of the Leland Stanford Junior …, priority 2017, dated 2022)", "key": {"miR17-5": {"test_system": "miR17-5", "assay": "Relative miR17-5 expression in PAECs (qPCR)", "format": "cell-based, human", "settings": "15 μM Enzastaurin 24 hours"}, "PKC": {"test_system": "PKC", "assay": "PKC and p-PKC protein expression in lung tissue of SuHx rats (immunoblot)", "format": "in vivo, rat", "settings": "whole lung tissue, 5 mg/kg daily oral gavage", "protocol": "Experimental PAH was induced in male Sasco Sprague Dawley rats by subcutaneous injection of 20 mg/kg body weight SU5416."}, "miR27a": {"test_system": "miR27a", "assay": "Relative miR27a expression in PAECs (qPCR)", "format": "cell-based, human", "settings": "15 μM Enzastaurin 24 hours"}, "BMPR2": {"test_system": "BMPR2", "assay": "Relative BMPR2 mRNA expression in PAECs (qPCR)", "format": "cell-based, human", "settings": "PAEC, 24 hours, low doses (5-15 uM), FIG. 14", "protocol": "(§1) Human PAEC (Promocell) or human PASMC (Promocell) were grown as monolayers in gelatin-coated dishes in a commercial EC (Promocell) or SMC (Promocell) media, respectively. Cells were passaged at 1:3 ratios and used for experiments from passages 3-8. Transformed lymphocytes (i.e., lymphoblasts) were cultured in RPMI 1640 with 10-15% FBS.\n(§2) FHIT expression was modulated by RNAi in PA endothelial cells (PAEC). A pool of 4 siRNAs for BMPR2, FHIT, LCK or a non-targeting control pool (Dharmacon) were transfected into PAECs using the RNAi Max kit (Invitrogen) for 48 hours. mRNA knockdown efficiency was determined by qPCR.\n(§3) For mRNA, total RNA was extracted from whole lung tissue using the RNAeasy Plus Kit (Qiagen) and reverse transcribed into cDNA using random primers with the Taqman cDNA reverse transcription Kit (Applied Biosciences) according to the manufacturer's instructions. For miR, total miR was isolated from whole lung tissue using the Taqman miRNA ABC purification Kit (Applied Biosciences) and was reverse transcribed using specific primers and the Taqman microRNA reverse transcription kit (Applied Biosciences). mRNA and miR expression levels were quantified using Taqman primer/probe sets for the target and normalized to a housekeeping control (mRNA: GAPDH; miR: RNU48). […]"}, "PAEC": {"test_system": "PAEC", "assay": "MTT proliferation assay in PAEC", "format": "cell-based, human", "settings": "Enzastaurin 0.5-50 M as printed", "protocol": "(§4) Assays were conducted according to the manufacturer's instructions and as previously described(E1,E9).\nQuantified area=% of cells that show nuclear γH2AX staining quantified with automated software (white nuclei=positive stain, grey nuclei=background stain). […] (n=3). […] (n=3).\n(§5) As a cumulative viability measurement, we quantified caspase3/7 activity, using the luminescent Caspase-Glo®3/7 assay(36) and DNA damage, using histone H2AX phosphorylation by immunofluorescence and quantification as nuclear area staining (%) by confocal microscopy(34, 35, 37). […] PAEC proliferation was assessed via an MTT proliferation assay and hemocytometer cell counts(36)."}, "Caspase 3/7 in PAECs": {"test_system": "Caspase 3/7 in PAECs", "assay": "Caspase-Glo 3/7 apoptosis assay", "format": "cell-based, human", "protocol": "as §4\nQuantified area=% of cells that show nuclear γH2AX staining quantified with automated software (white nuclei=positive stain, grey nuclei=background stain). […] FIGS. 9G-9H, MTT proliferation assay in Enzastaurin-treated (0.5-50 M) in PASMC and PAEC, respectively. (n=3). FIGS. 9I-9J, MTT proliferation assay in Enzastaurin-treated (5 M) siFHIT and siBMPR2 transfected PASMC compared to Ntsi control, respectively. (n=3).\nas §5"}, "FHIT": {"test_system": "FHIT", "assay": "Relative FHIT mRNA expression in PAECs (qPCR)", "format": "cell-based, human", "settings": "PAEC, 24 hours, low doses (5-15 uM), FIG. 14", "protocol": "as §1, §2, §3"}}}
{"smiles": "Cn1cc(C2=C(c3cn(C4CCN(Cc5ccccn5)CC4)c4ccccc34)C(=O)NC2=O)c2ccccc21", "note": "[Enzastaurin, 3-(1-methyl-1H-indol-3-yl)-4-[1-[1-(pyridin-2-ylmethyl)piperidin-4-yl]-1H-indol-3-yl]-1H-pyrrole-2,5-dione]", "values": [{"measurement": "siFHIT-mediated increase in miR17-5 expression", "setting": "miR17-5", "result": "inhibited"}, {"measurement": "PKC activation as measured by its phosphorylation", "setting": "PKC", "result": "did not observe a significant decrease"}, {"measurement": "siFHIT-mediated increase in miR27a expression", "setting": "miR27a", "result": "inhibited"}, {"measurement": "BMPR2 expression at low doses in vitro", "setting": "BMPR2", "result": "increased"}, {"measurement": "PAEC proliferation (MTT)", "setting": "PAEC", "result": "no increase in PAEC proliferation was detected"}, {"measurement": "Caspase 3/7-mediated apoptosis in synchronised PAECs", "setting": "Caspase 3/7 in PAECs; 24 hours, 5 μM or 15 μM Enzastaurin, 5 μM Ly333531 hydrochloride", "result": "decreases"}, {"measurement": "Caspase 3/7 luminescence (apoptosis) in siBMPR2 and siFHIT PAEC", "setting": "Caspase 3/7 in PAECs; t=48 h post-transfection, 15 μM Enzastaurin", "result": "decreased"}, {"measurement": "FHIT expression at low doses in vitro", "setting": "FHIT", "result": "increased"}]}
